Measured values reported in ChEMBL document CHEMBL1201862, “PubChem BioAssay data set” (2004).
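How tested: cells in 96-well plates exposed to compound for 48 hours at five concentrations. Abbreviation: GI50, concentration required for 50% inhibition of growth.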 Active and inactive are the calls of the source. Rule as the data show it: active = GI50 up to about 1.1 µM and inactive = higher.

Legend:
Test in all cases: DTP human tumour cell line panel, 48 h
[1] = tested on: SK-MEL-28
[2] = tested on: HCT-15
[3] = tested on: HCT-116
[4] = tested on: SN12C
[5] = tested on: OVCAR-8
[6] = tested on: IGROV-1
[7] = tested on: 786-0
[8] = tested on: SR
[9] = tested on: SNB-19
[10] = tested on: CAKI-1
[11] = tested on: A549
[12] = tested on: HOP-92
[13] = tested on: SF-268
[14] = tested on: SK-MEL-2
[15] = tested on: OVCAR-5
[16] = tested on: HOP-62
[17] = tested on: M14
[18] = tested on: NCI-H522
[19] = tested on: OVCAR-3
[20] = tested on: LOX IMVI

Compound | GI50 [1] | GI50 [2] [µM] | GI50 [3] | GI50 [4] | GI50 [5] | GI50 [6] | GI50 [7] | GI50 [8] | GI50 [9] | GI50 [10] | GI50 [11] | GI50 [12] | GI50 [13] | GI50 [14] | GI50 [15] | GI50 [16] | GI50 [17] | GI50 [18] | GI50 [19] | GI50 [20]
NCCN1C(=O)c2ccccc2C1(O)c1ccc(Cl)cc1 (stereo not given) | 17.6 µM (inactive) | 37.3 | 17.8 µM (inactive) | 35.2 µM (inactive) | 37.2 µM (inactive) | 19 µM (inactive) | 17.2 µM (inactive) | 17.9 µM (inactive) | 23.1 µM (inactive) | 24.5 µM (inactive) | 23.9 µM (inactive) | 10.4 µM (inactive) | 27.1 µM (inactive) | 16.5 µM (inactive) | 19.7 µM (inactive) | 24.2 µM (inactive) | 19 µM (inactive) | 14.2 µM (inactive) | 23.6 µM (inactive) | 16.6 µM (inactive)
O=[N+]([O-])c1cc([As](Br)c2ccc(O)c([N+](=O)[O-])c2)ccc1O | 1.63 µM (inactive) | 1.99 | 2 µM (inactive) | 1.65 µM (inactive) | 1.79 µM (inactive) | 1.47 µM (inactive) | 1.44 µM (inactive) | 0.383 µM (active) | 1.94 µM (inactive) | 1.7 µM (inactive) | 2.62 µM (inactive) | 1.38 µM (inactive) | 2.14 µM (inactive) | 0.746 µM (active) | 2.05 µM (inactive) | 1.91 µM (inactive) | 2.03 µM (inactive) | 0.145 µM (active) | 1.81 µM (inactive) | 1.48 µM (inactive)
COc1cc2c(c3c1c(=O)c1ccccc1n3C)C=CC1(CCCCC1)O2 | 4.8 µM (inactive) | 3.08 | 2.88 µM (inactive) | 6.28 µM (inactive) | 4.81 µM (inactive) | 2.15 µM (inactive) | 1.04 µM (active) | 1.95 µM (inactive) | > 7.18 µM (inactive) | 0.764 µM (active) | 0.446 µM (active) | 3.24 µM (inactive) | 4.48 µM (inactive) | 3.35 µM (inactive) | 5.73 µM (inactive) | 2.3 µM (inactive) | 2.68 µM (inactive) | 3.96 µM (inactive) | 3.53 µM (inactive) | 3.75 µM (inactive)
COc1cc(S(=O)(=O)Nc2nc(-c3ccc(N4C(=O)C(CC(=O)O)SC4c4cccs4)cc3)cs2)ccc1Cl (stereo not given) | 70.1 µM (inactive) | 19.9 | 29.3 µM (inactive) | 30.3 µM (inactive) | 39 µM (inactive) | 27.1 µM (inactive) | 41.8 µM (inactive) | 44.9 µM (inactive) | 79.6 µM (inactive) | 55.5 µM (inactive) | > 100 µM (inactive) | 30.9 µM (inactive) | 21.9 µM (inactive) | 27.8 µM (inactive) | > 100 µM (inactive) | 54 µM (inactive) | > 100 µM (inactive) | 17.8 µM (inactive) | 36.2 µM (inactive) | 20.3 µM (inactive)
CC(=O)Nc1cc2ccc(=O)oc2cc1Cl | > 100 µM (inactive) | > 100 | > 100 µM (inactive) | > 100 µM (inactive) | > 100 µM (inactive) | > 100 µM (inactive) | > 100 µM (inactive) | > 100 µM (inactive) | > 100 µM (inactive) | > 100 µM (inactive) | > 100 µM (inactive) | > 100 µM (inactive) | > 100 µM (inactive) | > 100 µM (inactive) | > 100 µM (inactive) | > 100 µM (inactive) | > 100 µM (inactive) | > 100 µM (inactive) | > 100 µM (inactive) | > 100 µM (inactive)
C=C1CC[C@@H](CCC2CCC3(OC2)O[C@]2(O)CC[C@@]3(C)OC2(C)C)C(C)(C)[C@H]1C/C=C1\CCOC1=O (stereo not given in full) | 26.1 µM (inactive) | 11.3 | 0.354 µM (active) | 16.6 µM (inactive) | 15.3 µM (inactive) | 18.5 µM (inactive) | 11.8 µM (inactive) | 2.67 µM (inactive) | 51.5 µM (inactive) | 35.1 µM (inactive) | 8.89 µM (inactive) | 10.5 µM (inactive) | 27.2 µM (inactive) | 17.5 µM (inactive) | > 56.1 µM (inactive) | 32.1 µM (inactive) | 17.7 µM (inactive) | 5.32 µM (inactive) | 15 µM (inactive) | 0.131 µM (active)
CC(=O)O[C@H]1C[C@H]2C(=S)Nc3ccccc3C(=S)N2C1 | > 100 µM (inactive) | > 100 | > 100 µM (inactive) | > 100 µM (inactive) | > 100 µM (inactive) | > 100 µM (inactive) | > 100 µM (inactive) | > 100 µM (inactive) | > 100 µM (inactive) | > 100 µM (inactive) | > 100 µM (inactive) | > 100 µM (inactive) | > 100 µM (inactive) | > 100 µM (inactive) | > 100 µM (inactive) | > 100 µM (inactive) | > 100 µM (inactive) | > 100 µM (inactive) | > 100 µM (inactive) | > 100 µM (inactive)
COC1=CC2(CC(OC)=C1OC)OC21COc2ccccc2C1=O (stereo not given) | > 100 µM (inactive) | 65.8 | 50.5 µM (inactive) | 47.2 µM (inactive) | > 100 µM (inactive) | > 100 µM (inactive) | 37.7 µM (inactive) | 24.9 µM (inactive) | 65.2 µM (inactive) | > 100 µM (inactive) | 56.4 µM (inactive) | > 100 µM (inactive) | > 100 µM (inactive) | 40.2 µM (inactive) | > 100 µM (inactive) | > 100 µM (inactive) | 87.5 µM (inactive) | 75 µM (inactive) | > 100 µM (inactive) | 50.5 µM (inactive)
C=C1c2[nH]c3ccccc3c2C2C(CC)C1CCN2C (stereo not given) | 29.5 µM (inactive) | 90.8 | 51.2 µM (inactive) | 98.4 µM (inactive) | 53.1 µM (inactive) | 15.2 µM (inactive) | > 100 µM (inactive) | 34.8 µM (inactive) | > 100 µM (inactive) | > 100 µM (inactive) | > 100 µM (inactive) | 25.6 µM (inactive) | > 100 µM (inactive) | > 100 µM (inactive) | > 100 µM (inactive) | > 100 µM (inactive) | 19.3 µM (inactive) | 63.2 µM (inactive) | > 100 µM (inactive) | 49.7 µM (inactive)
Cc1cc(-c2nc3cc(F)ccc3s2)ccc1NC(=O)[C@@H](N)CCCCN | 18.9 µM (inactive) | 4.33 | 2 µM (inactive) | 13 µM (inactive) | 4.82 µM (inactive) | < 0.0131 µM (active) | 2.69 µM (inactive) | 0.802 µM (active) | 10.4 µM (inactive) | 0.647 µM (active) | 1.67 µM (inactive) | 13.4 µM (inactive) | 6.75 µM (inactive) | 2.89 µM (inactive) | 0.119 µM (active) | 3.13 µM (inactive) | 2.14 µM (inactive) | 5.46 µM (inactive) | 6.11 µM (inactive) | 1.82 µM (inactive)
O=C1c2c[nH]nc2C(c2ccccc2)N1c1ccccc1 (stereo not given) | > 10 µM (inactive) | > 10 | > 10 µM (inactive) | > 10 µM (inactive) | > 10 µM (inactive) | > 10 µM (inactive) | > 10 µM (inactive) | > 10 µM (inactive) | > 10 µM (inactive) | > 10 µM (inactive) | > 10 µM (inactive) | > 10 µM (inactive) | > 10 µM (inactive) | > 10 µM (inactive) | > 10 µM (inactive) | > 10 µM (inactive) | > 10 µM (inactive) | > 10 µM (inactive) | > 10 µM (inactive) | > 10 µM (inactive)
COC(=O)CCC(=O)Nc1cc(Cl)ccc1Cl | > 100 µM (inactive) | > 100 | > 100 µM (inactive) | > 100 µM (inactive) | > 100 µM (inactive) | > 100 µM (inactive) | > 100 µM (inactive) | > 100 µM (inactive) | > 100 µM (inactive) | > 100 µM (inactive) | > 100 µM (inactive) | > 100 µM (inactive) | > 100 µM (inactive) | > 100 µM (inactive) | > 100 µM (inactive) | > 100 µM (inactive) | > 100 µM (inactive) | > 100 µM (inactive) | > 100 µM (inactive) | > 100 µM (inactive)
CC(C)(C)NNC(=O)/C(=C/c1ccc(Oc2ccc(Cl)c(Cl)c2)cc1)NC(=O)c1ccccc1 | > 100 µM (inactive) | > 100 | > 100 µM (inactive) | > 100 µM (inactive) | > 100 µM (inactive) | > 100 µM (inactive) | 59.6 µM (inactive) | 16.9 µM (inactive) | > 100 µM (inactive) | > 100 µM (inactive) | > 100 µM (inactive) | > 100 µM (inactive) | > 100 µM (inactive) | > 100 µM (inactive) | > 100 µM (inactive) | > 100 µM (inactive) | > 100 µM (inactive) | > 100 µM (inactive) | > 100 µM (inactive) | 18.9 µM (inactive)
C/C(Cl)=N/OC(=O)Nc1ccc(F)c([N+](=O)[O-])c1 | 17.6 µM (inactive) | 5.94 | 3.89 µM (inactive) | 7.57 µM (inactive) | 8.91 µM (inactive) | 6.97 µM (inactive) | 4 µM (inactive) | 8.57 µM (inactive) | 20.1 µM (inactive) | 1.79 µM (inactive) | 26.2 µM (inactive) | 5.4 µM (inactive) | 15.4 µM (inactive) | 17.6 µM (inactive) | 24.2 µM (inactive) | 18.2 µM (inactive) | 19.2 µM (inactive) | 1.81 µM (inactive) | 19.2 µM (inactive) | 6.68 µM (inactive)
